Experimental data: US9011839B2, “Anti-inflammatory and anti-vaginitis food composition and pharmaceutical composition containing Lactobacillus” (Glac Biotech Co., Ltd., priority 2010, dated 2015)

Key:
human dendritic cells [1] = assay: Stimulation of IL-10 secretion using an in vitro assay platform of dendritic cells; format: cell-based; settings: human dendritic cells co-cultured 48 hours with heated LAB (1:10); supernatant ELISA; Mean±SD
Procedure: B. Stimulation of IL-10 Secretion Using an In Vitro Assay Platform of Dendritic Cells.
In order to measure the increased amount of IL-10 secretion, human dendritic cells and the above-mentioned lactic acid bacteria are co-cultured and the secretion of IL-10 is then measured so as to determine the promoting effect on inhibiting inflammatory cells from secreting cytokine. The assay procedures are listed as followings: • 1. 200 mL human blood are obtained from healthy donors; • 2. 1:1 blood isolates (Ficoll-paque) and blood are centrifuged at 400 g in 18-20° C. for 30-40 min. • 3. Cells obtained from human PBMC (Peripheral Blood Mononuclear Cell) layer are washed with buffer solution 2-3 times and suspended with appropriate culture medium such as RPMI-1640. • 4. CD14^+ monocytes are purified from PBMC cells by using CD14^+ microbeads (MiniMACS system). • 5. Cells are differentiated into dendritic cells after incubating for 6-7 days by stimulating with IL-4 and GM-CSF and differentiated dendritic cells are then collected. • 6. The lactic acid bacteria strain is activated 3 days before co-culture and is then heated for thermal death at 100° C. for 30 min. • 7. The dendritic cells and the heated lactic acid bacteria strain (1:10) are co-cultured for 48 hours. • 8. […]
The statistic results (Mean±SD) of data are analyzed in Table 4. […]

human dendritic cells [2] = assay: Inhibition of TNF-α secretion using an in vitro assay platform of dendritic cells; format: cell-based; settings: human dendritic cells co-cultured 48 hours with heated LAB (1:10); supernatant ELISA; Mean±SD
Procedure: A. Inhibition of TNF-α Secretion Using an In Vitro Assay Platform of Dendritic Cells.
The inhibition assay for Th17 immune response is implemented by measuring TNF-α secretion after co-culture with the above-mentioned lactic acid bacteria. The assay procedures are listed as followings: • 1. 200 mL human blood are obtained from healthy donors. • 2. 1:1 blood isolates (Ficoll-paque) and blood are centrifuged at 400 g in 18-20° C. for 30-40 min. • 3. Cells obtained from human PBMC (Peripheral Blood Mononuclear Cell) layer are washed with buffer solution 2-3 times and suspended with appropriate culture medium such as RPMI-1640. • 4. CD14^+ monocytes are purified from PBMC cells by using CD14^+ microbeads (MiniMACS system). • 5. Cells are differentiated into dendritic cells after incubating for 6-7 days by stimulating with IL-4 and GM-CSF and differentiated dendritic cells are then collected. • 6. The lactic acid bacteria strain is activated 3 days before co-culture and is then heated for thermal death at 100° C. for 30 min. • 7. The dendritic cells and the heated lactic acid bacteria strain (1:10) are co-cultured for 48 hours. • 8. The supernatant of the cell culture medium is collected and used for measuring TNF-α amount by using ELISA (enzyme-linked-immunosorbent serologic assay).
The statistic results (Mean±SD) of data are analyzed in Table 3. […]

vaginitis patients = settings: Barrons et al (2008); tampons, 4-8 weeks; cited from earlier work

## Phytohemagglutinin [PHA]
Human dendritic cells [1]
  IL-10 Secretion: 9145 ± 118 pg/mL

## Lipopolysaccharide [LPS]
Human dendritic cells [2]
  TNF-α Secretion: 1521 ± 37 pg/mL

## CC(=O)O [acetic acid]
Vaginitis patients
  vaginitis patients revealing improvement: 38%
